From the supplement of paper PMC10307832

Tests used:
Assay in all cases: relative viability (nuclei count vs DMSO), 5 days (fraction); higher = more cells survive
[1] = compound: Cc1nc(Nc2ncc(C(=O)Nc3c(C)cccc3Cl)s2)cc(N2CCN(CCO)CC2)n1 [Dasatinib] + C[C@@H](Oc1cc(-c2cnn(C3CCNCC3)c2)cnc1N)c1c(Cl)ccc(F)c1Cl [Crizotinib] (partner 1 µM)
Procedure, shortened: (§1)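 Relative viability divides the nuclei count in treated wells by that in vehicle wells. Lung cancer cell lines were seeded in 1536-well plates, dosed by pin tool the next day, and fixed and stained after 5 days in one step with final 0.05% Triton X-100, 1% formaldehyde and 1 ug/ml Hoechst. Dosing was a single drug or a fixed anchor-drug dose plus five library-drug doses (not always all listed) in √10 steps, and values are medians of duplicate plates imaged at 4×.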

[2] = compound: Cc1nc(Nc2ncc(C(=O)Nc3c(C)cccc3Cl)s2)cc(N2CCN(CCO)CC2)n1 [Dasatinib] + CC(=O)Nc1cccc(-n2c(=O)n(C3CC3)c(=O)c3c(Nc4ccc(I)cc4F)n(C)c(=O)c(C)c32)c1 [Trametinib] (partner 0.02 µM)
Procedure, shortened: as §1

[3] = compound: C1CC1C(=O)NC2=NNC3=C2C=CC(=C3)C4=CC(=CC=C4)C(=O)NC5CC5 [XMD13-2] + COc1cc2c(Oc3ccc(NC(=O)C4(C(=O)Nc5ccc(F)cc5)CC4)cc3F)ccnc2cc1OCCCN1CCOCC1 [Foretinib] (partner 0.25 µM)
Procedure, shortened: as §1

[4] = compound: Cc1ccc(C(=O)Nc2cccc(C(F)(F)F)c2)cc1Nc1cncc(C(N)=O)c1 [ALW-II-49-7] + O=C(c1cc(Cc2n[nH]c(=O)c3ccccc23)ccc1F)N1CCN(C(=O)C2CC2)CC1 [Olaparib] (partner 8 µM)
Procedure, shortened: as §1

| Cell Line | relative viability ([1]; first compound 0.005 µM) | relative viability ([1]; first compound 0.01581 µM) | relative viability ([1]; first compound 0.05 µM) | relative viability ([1]; first compound 0.1581 µM) | relative viability ([1]; first compound 0.5 µM) | relative viability ([2]; first compound 0.005 µM) | relative viability ([2]; first compound 0.01581 µM) | relative viability ([2]; first compound 0.05 µM) | relative viability ([2]; first compound 0.1581 µM) | relative viability ([2]; first compound 0.5 µM) | relative viability ([3]; first compound 0.05 µM) | relative viability ([3]; first compound 0.1581 µM) | relative viability ([3]; first compound 0.5 µM) | relative viability ([3]; first compound 1.581 µM) | relative viability ([3]; first compound 5 µM) | relative viability ([4]; first compound 0.08 µM) | relative viability ([4]; first compound 0.253 µM) | relative viability ([4]; first compound 0.8 µM) | relative viability ([4]; first compound 2.53 µM) | relative viability ([4]; first compound 8 µM) |
| --- | --- | --- | --- | --- | --- | --- | --- | --- | --- | --- | --- | --- | --- | --- | --- | --- | --- | --- | --- | --- |
| NCI-H2170 | 1.1 | 0.94 | 0.84 | 0.547 | 0.523 | 0.929 | 0.828 | 0.834 | 0.651 | 0.365 | 0.937 | 0.97 | 1.03 | 0.9 | 0.984 | 0.76 | 0.595 | 0.562 | 0.535 | 0.603 |
| NCI-H2228 | 0.296 | 0.431 | 0.257 | 0.152 | 0.17 | 0.463 | 0.776 | 0.556 | 0.39 | 0.249 | 0.912 | 1.13 | 0.839 | 0.875 | 1.02 | 0.683 | 0.879 | 0.606 | 0.531 | 0.57 |
| NCI-H2347 | 0.316 | 0.397 | 0.355 | 0.301 | 0.369 | 0.25 | 0.277 | 0.221 | 0.157 | 0.164 | 0.986 | 0.992 | 1.17 | 0.848 | 1.1 | 0.596 | 0.568 | 0.562 | 0.545 | 0.556 |
| NCI-H2405 | 0.698 | 0.568 | 0.493 | 0.258 | 0.194 | 0.431 | 0.365 | 0.351 | 0.272 | 0.233 | 1.09 | 1 | 1.09 | 1.06 | 1.04 | 0.856 | 0.97 | 0.86 | 0.811 | 0.785 |
| NCI-H3122 | 0.261 | 0.332 | 0.347 | 0.253 | 0.223 | 0.234 | 0.249 | 0.248 | 0.222 | 0.192 | 0.966 | 0.949 | 1.05 | 0.977 | 0.939 | 0.636 | 0.657 | 0.642 | 0.705 | 0.537 |
| PC-3 [JPC-3] | 0.996 | 0.986 | 1.11 | 0.955 | 0.63 | 0.771 | 0.736 | 0.79 | 0.704 | 0.528 | 1.02 | 1.02 | 1.05 | 0.999 | 0.989 | 0.693 | 1.2 | 1.24 | 1.05 | 1 |
| PC-14 | 0.94 | 0.975 | 0.855 | 0.448 | 0.113 | 0.882 | 0.642 | 0.743 | 0.418 | 0.0498 | 1.04 | 0.947 | 0.981 | 0.995 | 0.976 | 0.282 | 0.227 | 0.264 | 0.253 | 0.273 |
| RERF-LC-KJ | 0.839 | 0.977 | 0.832 | 0.75 | 0.764 | 0.855 | 0.784 | 0.765 | 0.668 | 0.658 | 0.871 | 0.869 | 0.87 | 0.795 | 0.844 | 0.988 | 1.06 | 0.874 | 0.856 | 0.725 |
| SK-LU-1 | 0.558 | 0.417 | 0.35 | 0.251 | 0.251 | 0.349 | 0.306 | 0.291 | 0.247 | 0.252 | 1.04 | 0.854 | 0.933 | 0.81 | 0.697 | 0.543 | 0.49 | 0.451 |  | 0.362 |
| SK-MES-1 | 0.968 | 0.937 | 0.93 | 0.372 | 0.212 | 0.566 | 0.475 | 0.361 | 0.217 | 0.157 | 0.866 | 0.967 | 1.06 | 0.87 | 1.15 | 0.548 | 0.815 | 0.746 | 0.527 | 0.418 |
| SW 1573 | 0.826 | 0.689 | 0.624 | 0.429 | 0.356 | 0.531 |  | 0.475 | 0.33 | 0.433 | 1.01 | 0.832 | 0.984 | 0.841 | 0.733 | 0.508 | 0.561 | 0.469 | 0.505 | 0.349 |
